Data published in US8722373B2, “Contaminant control in Zymomonas fermentation using virginiamycin” (E I du Pont de Nemours and Company, priority 2012, dated 2014).

Legend:
[1] = test system: Zymomonas mobilis strain ZM4; conditions: concentrations that are safe to use with yeast; Agrawan and Basappa 1996; cited from earlier work
[2] = test system: L. plantarum; experiment: Contaminated Z. mobilis hydrolysate fermentation with Lactrol in the medium (lactic acid); type: cell-based, Lactobacillus plantarum; conditions: fermentation broth with media containing cellulosic biomass hydrolysate
Description: (§1) Fermentation samples were taken at timed intervals and analyzed for EtOH, residual sugars, and other metabolic products such as acetic acid, lactic acid, and glycerol using either a Waters HPLC system (Alliance system, Waters Corp., Milford, Mass.) or an Agilent 1100 Series LC; conditions=0.6 mL/min of 0.01 N H2SO4, injection volume=5 μL, autosampler temperature=10° C., column temperature=55° C., run time=25 min, detection by refractive index (maintained at 40° C.). The HPLC column was purchased from BioRad (Aminex HPX-87H, BioRad Inc., Hercules, Calif.). Analytes were quantified by refractive index detection and compared to known standards.
To determine the Lactrol® dose required to prevent lactic acid formation during hydrolysate fermentation, a portion of intentionally-contaminated seed culture F1067 at EFT=19.3 hr (from Example 1) was used as a seed culture to inoculate cob hydrolysate medium (FRF13; see General Methods) (adjusted to pH 5.8, +10 mM sorbitol) at 10 vol % (final volume) containing either 0 ppm (sample F1069) or 2 ppm (sample F1071) of Lactrol®, which was then fermented at 33° C. (reduced to 30° C. at EFT=21 hr) and pH 5.8 (adjusted with 4 N NaOH). […]

[3] = test system: Z. mobilis strain ZW705; experiment: Tolerance of Z. mobilis to virginiamycin: growth in clarified MD07#3 hydrolysate; type: cell-based, Zymomonas mobilis; conditions: 2.5 ppm and 5 ppm virginiamycin; clarified cellulosic biomass hydrolysate medium, conditions of Example 1
Description: Z. mobilis strain ZW705 (described in General Methods) inoculum was prepared by reviving 2 mL of OD-10 frozen stock in MRM3G6 medium (10 g/L BBL yeast extract, 2 g/L KH2PO4, 1 g/L MgSO4*7H2O, 60 g/L glucose, pH 5.5) at 33° C. for ˜8 hr. This culture was used to inoculate tubes containing clarified MD07#3 hydrolysate (see General Methods) supplemented with 2 g/L yeast extract and various virginiamycin preparations at a 20% (final volume) inoculation rate, producing an initial OD of ˜0.5. Stocks of the virginiamycin-containing agents Lactrol®, Lactoside V™ or Lactoside 247™ were prepared at 1000 ppm in ethanol. These agents were added to the media at 2.5 ppm, 5 ppm, 10 ppm, or 20 ppm. […] The tubes were maintained at 33° C. with shaking for 32 hours, with growth monitored by measuring OD600.

[4] = test system: Lactobacillus plantarum strain ATCC 8014; experiment: Contamination control in Z. mobilis seed medium (lactic acid formation); type: cell-based; conditions: fermentation broth with media lacking cellulosic biomass hydrolysate
Description: as §1
Z. mobilis strain ZW705 (described in General Methods) inoculum was prepared by reviving 2 mL of OD-10 frozen stock in MRM3G6 medium (10 g/L BBL yeast extract, 2 g/L KH2PO4, 1 g/L MgSO4*7H2O, 60 g/L glucose, pH 5.5) at 33° C. for ˜8 hr, at which point the OD was ˜2. Lactobacillus plantarum strain ATCC 8014 inoculum was prepared by inoculating MRS medium with an individual colony and allowing growth at 33° C. for 8 hr, at which point the OD was ˜0.4.
Seed medium (10 g/L Amberex695 yeast extract, 2 g/L KH2PO4, 5 g/L MgSO4*7H2O, 10 mM sorbitol, 150 g/L glucose, pH 5.5) was prepared and sterilized by autoclaving (121° C., 30 min). […]

Compound | effect on growth of / safety for Zymomonas [1] | concentration of virginiamycin that controls contaminating bacteria while maintaining typical ethanol production [2] | growth of Zymomonas cells (OD600) compared with absence of virginiamycin [3] | concentration of virginiamycin that controls contaminating bacteria without affecting glucose utilization and ethanol production of Zymomonas cells [4]
polymixin | inhibitory to growth | – | – | –
virginiamycin | – | at least 10 ppm | improved growth | about 2 ppm
[H]/N=C(/N)N[C@H]1[C@H](O)[C@@H](O)[C@H](O[C@@H]2O[C@@H](C)[C@](O)(C=O)[C@H]2O[C@@H]2O[C@@H](CO)[C@H](O)[C@@H](O)[C@@H]2NC)[C@@H](N/C(N)=N\[H])[C@@H]1O [streptomycin] | inhibitory to growth | – | – | –
CC1(C)S[C@@H]2[C@H](NC(=O)Cc3ccccc3)C(=O)N2[C@H]1C(=O)O [penicillin G] | safe for use with Zymomonas | – | – | –
